“Also recorded” adds a separate entry of the source.
How the values were obtained:
PARP = assay: Western blot of cell death targets; type: cell-based, human; conditions: 1 μM, 24 h, HL-60
Experimental: Apoptosis was further characterized by the western blot analysis. Cells were treated with tested compounds at 1 μM for 24 h and expression of key apoptotic proteins like NF-kB, survivin; PARP, Bcl-2 and HSP-90 were analyzed through western blot. Both NF-kB and survivin are highly expressed in HL-60 cells. NF-kB is a transcriptional factor regulating the expression of several genes in the cells whereas survivin is a cell cycle regulated inhibitor of apoptosis protein (IAP), mostly over expressed in most of the tumors.
During apoptotic stimuli activated caspase-3 appears to cause DNA fragmentation through activation of caspase activated DNAse (CAD) in the nucleus of the cells. […] Cancer cells have very high level of heat shock proteins. These are molecular chaperones expressed constitutively under normal conditions to maintain protein homeostasis and are induced upon environmental stress.

[1] = system: caspase-3, caspase-8, caspase-9 activity in HL-60 Cells; assay: Caspases induction; type: cell-based, human; conditions: 1 μM, 24 h
Description: So activation of caspases by compound 8 indicate that it induce apoptosis through both the intrinsic as well as extrinsic apoptotic pathway in HL-60 cells.

[2] = system: normal monkey kidney CV-1 cells; assay: MTT cytotoxicity in normal cells; type: cell-based; conditions: Primates
Experimental: These compounds were also evaluated for their cytotoxic potential in normal cells and for these purpose their IC50 value were also determine in normal monkey kidney CV-1 cells by using MTT method. The ratios of normal to cancer cells IC50 value were ranges from 10-1000 times (Table 5).

[3] = system: Ehrlich Ascites Carcinoma (EAC); assay: In vivo anticancer activity, Ehrlich ascites carcinoma; set-up: species or system Swiss mice; conditions: for No. of deaths / toxicity to animals: EAC mice
Experimental: Model: Ehrlich Ascites Carcinoma (EAC)
Ehrlich ascites carcinoma (EAC) cells were collected from the peritoneal cavity of the swiss mice harbouring 8-10 days old ascitic tumor. 1×10^7 EAC cells were injected intraperitoneally in Swiss mice selected for the experiment on day 0. The next day, animals were randomized and divided into different groups. The treatment groups contained 7 animals each and control group contained 10 animals. Treatment groups were treated with different doses of test substances intraperitoneally from day 1-9. One of the treatment group received 5-fluorouracil (20 mg/kg, i.p) and it served as positive control. The tumor bearing control group was similarly administered normal saline (0.2 ml, i.p.). On day 12, animals were sacrificed and ascitic fluid was collected from peritoneal cavity of each mouse for the evaluation of tumor growth. Percent tumor growth inhibition was calculated based on the total number of tumor cells present in the peritoneal cavity as on day 12 of the experiment using the following formula.

topoisomerase II = assay: DNA topoisomerase-II inhibition assay; type: biochemical; conditions: 1 μM; etoposide 100 μM
Description: DNA topoisomerases are nuclear enzymes capable of resolving the topology of DNA to allow its replication. So, proper relaxing is very important for successful replication cycle and thus for the cell survival. However, topoisomerases also serve as targets in the anticancer chemotherapy in which cell death serves an important purpose. Moreover, the topoisomerase targeting drugs can either be classified either topo posions, which act by stabilizing enzyme DNA cleavable complexes leading to DNA break or topo catalytic inhibitors, which act by stabilizing enzyme where both DNA strands remain intact and no DNA breaks occur. Importantly, all the topoisomerase inhibitors finally induce apoptosis. In the present study, all the five compounds 4-8 were first subjected to topoisomerase II inhibition assay.

Compound: O=C(Nc1nc2ccc([N+](=O)[O-])cc2s1)c1cccnc1Nc1cc(F)c(F)c(F)c1 [Compound 8, N3-(6-nitro-1,3-benzothiazol-2-yl)-2-[(3,4,5-trifluorophenyl)amino]-3-pyridine carboxamide]
- PARP cleavage (western blot) (PARP): highest potential
- activation of caspases-3,-8,-9 activities [1]: 2-3 folds
- IC50 [2]: > 100 µM
- Growth Inhibition (%) ([3]; 0.1 mg/kg i.p. day 1-9, read day 12): 10.98%
- No. of deaths / toxicity to animals ([3]; 0.1 mg/kg i.p.): 0/7
- Growth Inhibition (%) ([3]; 0.3 mg/kg i.p. day 1-9, read day 12): 53.15%
- No. of deaths / toxicity to animals ([3]; 0.3 mg/kg i.p.): 0/7
- Growth Inhibition (%) ([3]; 0.4 mg/kg i.p. day 1-9, read day 12): Intolerable
- No. of deaths / toxicity to animals ([3]; 0.4 mg/kg i.p.): deaths of all the seven animals
- No. of deaths / toxicity to animals ([3]; 0.4 mg/kg i.p., listed as Comp 8): 7/7
- Growth Inhibition (%) ([3]; 0.5 mg/kg i.p. day 1-9, read day 12): Intolerable
- No. of deaths / toxicity to animals ([3]; 0.5 mg/kg i.p.): 7/7
- Growth Inhibition (%) ([3]; 2 mg/Kg i.p. day 1-9, read day 12): Intolerable
- No. of deaths / toxicity to animals ([3]; 2 mg/Kg i.p.): 7/7
- Growth Inhibition (%) ([3]; 5 mg/Kg i.p. day 1-9, read day 12): Intolerable
- No. of deaths / toxicity to animals ([3]; 5 mg/Kg i.p.): 7/7
- Growth Inhibition (%) ([3]; 20 mg/Kg i.p. day 1-9, read day 12): Intolerable
- No. of deaths / toxicity to animals ([3]; 20 mg/Kg i.p.): 7/7
- topoisomerase-II inhibition (DNA relaxation) (topoisomerase II): more potent effect relative to etoposide; also recorded: maximum inhibition

From patent US9029553B2, “2-anilino nicotinyl linked 2-amino benzothiazole conjugates and process for the preparation thereof” (Council of Scientific & Industrial Research, priority 2011, dated 2015)
